{
  "source": "patent US7317038B2",
  "about": "“Nerve regeneration promoters containing semaphorin inhibitor as the active ingredient” (Dainippon Sumitomo Pharma Co., Ltd., priority 2000, dated 2008)",
  "key": {"[1]": {"target": "T1, rat semaphorin 6C-AP (Sema6C-AP) (Rattus norvegicus, UniProt Q9WTL3)", "T1 construct": "a fusion protein of extracellular domain of Sema6C and human placenta-derived alkaline phosphatase", "T1 sequence (Q9WTL3 24-635 limits assumed)": "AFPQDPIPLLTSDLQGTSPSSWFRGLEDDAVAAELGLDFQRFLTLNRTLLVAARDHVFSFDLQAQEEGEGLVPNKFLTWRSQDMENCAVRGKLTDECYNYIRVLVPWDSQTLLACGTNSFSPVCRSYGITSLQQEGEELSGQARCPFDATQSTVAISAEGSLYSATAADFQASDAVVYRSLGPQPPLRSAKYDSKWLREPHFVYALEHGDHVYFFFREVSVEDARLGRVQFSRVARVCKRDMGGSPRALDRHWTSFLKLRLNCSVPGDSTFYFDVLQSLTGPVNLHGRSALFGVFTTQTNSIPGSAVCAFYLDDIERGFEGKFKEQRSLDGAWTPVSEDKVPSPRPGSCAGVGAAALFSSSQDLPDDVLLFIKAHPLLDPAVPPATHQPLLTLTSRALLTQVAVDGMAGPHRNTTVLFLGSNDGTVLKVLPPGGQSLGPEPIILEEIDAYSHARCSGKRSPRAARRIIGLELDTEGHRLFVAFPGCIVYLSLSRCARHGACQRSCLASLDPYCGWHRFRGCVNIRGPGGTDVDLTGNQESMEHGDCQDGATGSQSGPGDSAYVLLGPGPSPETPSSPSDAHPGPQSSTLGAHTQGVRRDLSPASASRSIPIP", "assay": "Suppression of growth cone collapse activity of Sema6C-AP (chick embryo dorsal root ganglions)", "type": "cell-based", "protocol": "The experiment was carried out in a same way as in Example 2 except that rat semaphorin 6C-AP (Sema6C-AP: a fusion protein of extracellular domain of Sema6C and human placenta-derived alkaline phosphatase) was used instead of mouse semaphorin 3A (Sema3A), and dorsal root ganglions excised from 8-day-old chick embryos were used instead of those excised from 7-day-old chick embryos. The collapse rate of growth cone was measured when Sema6C-AP was added one hour after the addition of the compound SPF-3059-1 at various concentrations."}, "[2]": {"target": "T2, Sema3A (Mus musculus, UniProt O08665)", "T2 construct": "expressed in transfected cells; host or cells: COS7", "T2 sequence (O08665 21-772)": "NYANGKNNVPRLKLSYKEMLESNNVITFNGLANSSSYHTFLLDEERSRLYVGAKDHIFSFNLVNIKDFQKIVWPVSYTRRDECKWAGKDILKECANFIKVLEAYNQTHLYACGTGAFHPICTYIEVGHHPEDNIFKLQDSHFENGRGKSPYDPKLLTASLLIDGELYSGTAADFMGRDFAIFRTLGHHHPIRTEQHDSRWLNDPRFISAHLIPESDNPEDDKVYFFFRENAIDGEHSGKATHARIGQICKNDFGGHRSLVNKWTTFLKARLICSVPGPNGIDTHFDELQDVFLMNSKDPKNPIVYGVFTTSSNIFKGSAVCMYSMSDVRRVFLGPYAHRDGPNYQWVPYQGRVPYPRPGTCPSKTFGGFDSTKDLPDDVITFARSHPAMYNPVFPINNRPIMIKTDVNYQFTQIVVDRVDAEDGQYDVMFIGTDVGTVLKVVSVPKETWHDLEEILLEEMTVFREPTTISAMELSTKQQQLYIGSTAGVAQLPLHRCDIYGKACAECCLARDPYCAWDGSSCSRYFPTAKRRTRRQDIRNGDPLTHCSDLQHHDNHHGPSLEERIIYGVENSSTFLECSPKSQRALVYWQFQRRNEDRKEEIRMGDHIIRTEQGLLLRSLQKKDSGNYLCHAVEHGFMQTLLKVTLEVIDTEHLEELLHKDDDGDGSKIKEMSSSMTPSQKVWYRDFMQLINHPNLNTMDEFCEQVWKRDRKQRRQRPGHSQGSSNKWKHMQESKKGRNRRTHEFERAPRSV", "assay": "Collagen gel co-culture: suppression of neurite outgrowth inhibitory action of Sema3A", "type": "cell-based", "set-up": "key to suppression of neurite outgrowth inhibitory activity of Sema3A, score / inhibition of neurite outgrowth-inhibitory action of Sema3A, score: neurites outgrew in a complete concentric circular shape just like for the control groups where Sema3A-non-expressing COS7 cells were used, it was scored +++ (a strong inhibitory effect for Sema3A); outgrowth was found almost in a concentric circular shape accompanied with a little suppression of the outgrowth toward the direction of Sema3A-expressing COS cells, it was scored ++; outgrowth toward the direction of Sema3A-expressing COS cells is fairly suppressed to present a crescent shape, it was scored +; outgrowth toward the direction of Sema3A-expressing COS cells was not found at all (no inhibitory effect for Sema3A), it was scored −", "settings": "for suppression of neurite outgrowth inhibitory activity of Sema3A, score: Example 5", "protocol": "Whether the object compounds (SPF-3059-1, M162, A721) have persistent inhibitory action to Sema3A was analyzed by the collagen gel co-culture method (Neuroprotocols 4, 116, 1994) using Sema3A-expressing COS7 cell clumps and 7- or 8-day-old chick embryo dorsal root ganglions. The Sema3A-expressing COS7 cell clumps were generated as follows. 1 μg of Sema3A-expression plasmid was introduced into COS7 cells (100000 cells/35 mm culture plate), which were cultured overnight, with the FuGENE6 transfection reagent (Roche). 2.5 hours after the starting of the transfection, the COS7 cells were collected by trypsinization and centrifugation, and re-suspended in a medium of 200 μl. 20 μl of the cell suspension was placed on the lid of the culture plate (inside) and the lid was turned over, and then the suspension was cultivated for 20 hours (hanging drop culture) (Cell 78, 425, 1994). When the culture was over, aggregated COS7 cells (clump) were collected and trimmed to a diameter of 0.5 mm. The Sema3A-expressing COS7 cell clump and the above-mentioned dorsal root ganglions were placed in parallel at a distance of 0.5 to 1 mm in a 0.2% collagen gel which was then cultivated in a medium containing the aforementioned compounds at various concentrations for 2 days at 37° C. under 5% CO2. Glutaraldehyde was quickly added therein to make the final concentration 1%. The cultures were then left for 1 hour at room temperature so that the tissues were fixed, and the neurite outgrowth was microscopically observed. The results are found in FIG. 4.\nWhen a medium not containing a subject compound was used, neurites were unable to grow towards the COS7 cell clump with the high concentration of Sema3A and grew only to the opposite direction.\nIn a similar way as in Example 4, suppression of the neurite outgrowth inhibitory activity was analyzed for the compounds, SPF-3059-1, SPF-3059-2 and SPF-3059-5. When the neurites outgrew in a complete concentric circular shape just like for the control groups where Sema3A-non-expressing COS7 cells were used, it was scored +++ (a strong inhibitory effect for Sema3A). When the outgrowth was found almost in a concentric circular shape accompanied with a little suppression of the outgrowth toward the direction of Sema3A-expressing COS cells, it was scored ++. […] When the outgrowth toward the direction of Sema3A-expressing COS cells was not found at all (no inhibitory effect for Sema3A), it was scored −."}},
  "note": "“Also recorded” adds a separate entry of the source.",
  "data": [
    {"smiles": "CC(=O)c1c(C)c(C(=O)C2COc3cc(O)c(O)c(C(=O)O)c3C2=O)cc2c(=O)c3c(C(=O)O)c(O)c(O)cc3oc12", "note": "(stereo not drawn) [SPF-3059-1]", "values": [
      {"measurement": "inhibition of growth cone collapse activity of Sema6C-AP (in words)", "setting": "[1]; E8 chick embryo dorsal root ganglions, Sema6C-AP added one hour after compound", "value": "inhibit the growth cone collapse activities of Sema6C-AP in a concentration-dependent manner"},
      {"measurement": "collapse rate of growth cones, compound alone", "setting": "[1]; Sema6C-AP not added", "value": "did not affect the rate at all"},
      {"measurement": "suppression of neurite outgrowth inhibitory activity of Sema3A, score", "setting": "[2]; 0.5 μg/ml compound", "value": "+"},
      {"measurement": "suppression of neurite outgrowth inhibitory activity of Sema3A, score", "setting": "[2]; 1.0 μg/ml compound", "value": "++"},
      {"measurement": "suppression of neurite outgrowth inhibitory activity of Sema3A, score", "setting": "[2]; 2.0 μg/ml compound", "value": "+++"},
      {"measurement": "persistent inhibitory action to Sema3A (neurite outgrowth toward Sema3A-expressing COS7 cell clump)", "setting": "[2]; collagen gel co-culture, 2 days", "value": "persistently inhibit Sema3A activities; also recorded: persistently inhibited the action of Sema3A"}
    ]}
  ]
}
